Measured values from patent US12655142B2 (Merck Patent GmbH, priority 2019, dated 2026).

What was measured:
[1] = target: T1, c-Kit(V654A) (Homo sapiens, UniProt P10721, V654A); assay: c-Kit(V654A) assay (33P-ATP filter binding kinase assay); type: biochemical; conditions: recombinant human c-Kit aa 544-end V654A, ATP 200 μM
T1 construct: recombinant human c-Kit, amino acids 544-end containing the V654A mutation; GST (N)
Procedure, shortened: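 Radiometric filter-binding read-out: substrate 33P incorporation counted by scintillation after P30 filtermat washes in 75 mM phosphoric acid and methanol. Enzyme: N-GST recombinant human c-Kit aa 544-end carrying V654A.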

[2] = target: T2, GIST430/654 cell line expressing mutated constitutively active cKIT receptor tyrosine kinase (Δ560-576 deletion and V654A point mutation) (Homo sapiens, UniProt P10721, DEL560-576/V654A); assay: Cellular cKIT autophosphorylation (phospho-Y307-cKIT, Luminex bead assay) in GIST430/654 cells; type: cell-based; conditions: compounds 45 min, read-out: GIST 430/654 IC50
T2 construct: endogenous in cells; host or cells: GIST430/654 cells
Procedure, shortened: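 GIST430 (Δ560-576) and imatinib-resistant GIST430/654 (plus V654A; grown with 100 nM imatinib) cells were plated in IMDM/15% FCS and treated next day with serially diluted compound for 45 min. Lysates were captured on anti-total-cKIT Luminex beads overnight at 4 °C and probed for phospho-Y307. IC50 was taken from percent of 0.3% DMSO control.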

[3] = Determination of Efflux-Ratio (ER) in Caco-2 cells; conditions: human, Caco-2, pH 7.4

T1 sequence (P10721 544-976 V654A): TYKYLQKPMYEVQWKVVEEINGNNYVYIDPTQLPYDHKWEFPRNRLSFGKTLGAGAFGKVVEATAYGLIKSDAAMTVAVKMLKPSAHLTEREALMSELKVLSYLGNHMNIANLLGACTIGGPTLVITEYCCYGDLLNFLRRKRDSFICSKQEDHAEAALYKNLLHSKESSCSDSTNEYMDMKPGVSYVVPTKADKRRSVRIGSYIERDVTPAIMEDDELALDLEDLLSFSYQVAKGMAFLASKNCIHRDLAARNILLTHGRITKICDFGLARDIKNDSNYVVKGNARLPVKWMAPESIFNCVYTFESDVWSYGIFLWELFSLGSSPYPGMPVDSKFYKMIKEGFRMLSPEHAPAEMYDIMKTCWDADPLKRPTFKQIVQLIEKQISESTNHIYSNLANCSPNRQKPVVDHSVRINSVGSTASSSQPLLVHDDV
T2 sequence (P10721 with tags, fused parts or gaps DEL560-576/V654A): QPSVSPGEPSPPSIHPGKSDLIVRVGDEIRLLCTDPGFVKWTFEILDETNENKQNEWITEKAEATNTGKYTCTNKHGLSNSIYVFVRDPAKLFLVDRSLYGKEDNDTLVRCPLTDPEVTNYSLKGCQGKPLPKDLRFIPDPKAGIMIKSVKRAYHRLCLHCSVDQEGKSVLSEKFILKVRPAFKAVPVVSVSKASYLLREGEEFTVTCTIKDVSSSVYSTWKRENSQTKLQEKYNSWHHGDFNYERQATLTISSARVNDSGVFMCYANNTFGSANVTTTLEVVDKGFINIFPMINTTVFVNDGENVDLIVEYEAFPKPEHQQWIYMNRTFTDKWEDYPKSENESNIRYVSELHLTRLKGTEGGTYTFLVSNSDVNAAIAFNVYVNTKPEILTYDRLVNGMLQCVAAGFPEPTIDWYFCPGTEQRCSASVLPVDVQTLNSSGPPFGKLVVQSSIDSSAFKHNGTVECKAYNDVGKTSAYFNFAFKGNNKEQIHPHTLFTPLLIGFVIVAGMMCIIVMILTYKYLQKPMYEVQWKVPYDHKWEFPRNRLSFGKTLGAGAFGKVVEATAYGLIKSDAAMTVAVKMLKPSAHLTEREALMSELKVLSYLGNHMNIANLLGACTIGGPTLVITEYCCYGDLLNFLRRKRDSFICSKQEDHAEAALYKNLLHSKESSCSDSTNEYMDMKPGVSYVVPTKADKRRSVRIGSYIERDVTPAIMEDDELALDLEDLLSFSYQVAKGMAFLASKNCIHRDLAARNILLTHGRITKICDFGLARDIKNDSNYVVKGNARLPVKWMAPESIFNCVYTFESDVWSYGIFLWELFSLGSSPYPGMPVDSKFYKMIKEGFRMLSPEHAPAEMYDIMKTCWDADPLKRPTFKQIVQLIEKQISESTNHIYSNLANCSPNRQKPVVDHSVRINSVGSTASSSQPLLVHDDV

IC50 [1] [µM]	IC50 [2] [µM]	efflux ratio at 2 h, 1 μM [3]	SMILES
0.013	0.084	> 50	Cn1cc(-c2ccc(CNc3cc(-c4cnc5cc(N6CCC(O)C6)ccn45)ncn3)cc2)cn1 (stereo not shown) [A245, 1-(3-{6-[4-(1-methyl-1H-pyrazol-4-yl)-benzylamino]-pyrimidin-4-yl}-imidazo[1,2-a]pyridin-7-yl)-pyrrolidin-3-ol]
0.016	0.13	< 15	Cn1cc(-c2ccc(CNc3cc(-c4cnc5cc(OCCCn6cccn6)ccn45)ncn3)cc2)cn1 [A257, N-{[4-(1-methyl-1H-pyrazol-4-yl)phenyl]methyl}-6-{7-[3-(1H-pyrazol-1-yl)propoxy]imidazo[1,2-a]pyridin-3-yl}pyrimidin-4-amine]
0.016	0.12	–	COc1ccn2c(-c3cc(NCc4ccc(-c5cnn(C6COC6)c5)cc4)ncn3)cnc2c1 [A33, 6-{7-methoxyimidazo[1,2-a]pyridin-3-yl}-N-({4-[1-(oxetan-3-yl)-1H-pyrazol-4-yl]phenyl}methyl)pyrimidin-4-amine]
0.01	0.19	–	COc1ccn2c(-c3cc(NCc4ccc(-c5nc(C)no5)cc4)ncn3)cnc2c1 [A47, 6-{7-methoxyimidazo[1,2-a]pyridin-3-yl}-N-{[4-(3-methyl-1,2,4-oxadiazol-5-yl)phenyl]methyl}pyrimidin-4-amine]
0.0078	0.19	–	Cc1ccn2c(-c3cc(NCc4ccc(-c5cnn(C)c5)cc4)ncn3)cnc2c1 [A66, [6-(7-methyl-imidazo[1,2-a]pyridin-3-yl)-pyrimidin-4-yl]-[4-(1-methyl-1H-pyrazol-4-yl)-benzyl]-amine]
0.0092	0.27	–	Cn1cc(-c2ccc(CNc3cc(-c4cnc5cc(Cl)ccn45)ncn3)cc2)cn1 [A82, 6-{7-chloroimidazo[1,2-a]pyridin-3-yl}-N-{[4-(1-methyl-1H-pyrazol-4-yl)phenyl]methyl}pyrimidin-4-amine]
0.0073	0.065	–	Cn1cc(-c2ccc(CNc3cc(-c4cnc5cc(OCCCN6CC(F)(F)C6)ccn45)ncn3)cc2)cn1 [A142, 6-{7-[3-(3,3-difluoroazetidin-1-yl)propoxy]imidazo[1,2-a]pyridin-3-yl}-N-{[4-(1-methyl-1H-pyrazol-4-yl)phenyl]methyl}pyrimidin-4-amine]
0.011	0.5	–	Cn1cc(-c2ccc(COc3cc(-c4cnc5cc(OCCN6CCCC6)ccn45)ncn3)cc2)cn1 [A87, 3-{6-[4-(1-methyl-1H-pyrazol-4-yl)-benzyloxy]-pyrimidin-4-yl}-7-(2-pyrrolidin-1-yl-ethoxy)-imidazo[1,2-a]pyridine]
0.0043	0.035	–	Cn1cc(-c2ccc(CNc3cc(-c4cnc5cc(OCCCN6CCCCC6)ccn45)ncn3)cc2)cn1 [A237, N-{[4-(1-methyl-1H-pyrazol-4-yl)phenyl]methyl}-6-{7-[3-(piperidin-1-yl)propoxy]imidazo[1,2-a]pyridin-3-yl}pyrimidin-4-amine]
0.0055	0.2	–	Cn1ccc(-c2ccc(CNc3cc(-c4cnc5ccccn45)ncn3)cc2)n1 [A14, (6-Imidazo[1,2-a]24yridine-3-yl-pyrimidin-4-yl)-[4-(1-methyl-1H-pyrazol-3-yl)-benzyl]-amine]
0.0078	0.077	–	Cn1cc(-c2ccc(CNc3cc(-c4cnc5cc(N6CCOCC6)ccn45)ncn3)cc2)cn1 [A180, [4-(1-methyl-1H-pyrazol-4-yl)-benzyl]-[6-(7-morpholin-4-yl-imidazo[1,2-a]pyridin-3-yl)-pyrimidin-4-yl]-amine]
0.022	0.18	–	COc1ccn2c(-c3cc(NCc4ccc(-c5cnn(C)c5CO)cc4)ncn3)cnc2c1 [A161, [4-(4-{[6-(7-methoxy-imidazo[1,2-a]pyridin-3-yl)-pyrimidin-4-ylamino]-methyl}-phenyl)-2-methyl-2H-pyrazol-3-yl]-methanol]
0.021	0.23	–	c1cn(-c2ccc(CNc3cc(-c4cnc5cc(OCCN6CCCC6)ccn45)ncn3)cc2)nn1 [A70, {6-[7-(2-pyrrolidin-1-yl-ethoxy)-imidazo[1,2-a]pyridin-3-yl]-pyrimidin-4-yl}-(4-[1,2,3]triazol-1-yl-benzyl)-amine]
0.013	1	–	Cn1cc(-c2ccc(CNc3cc(-c4cnc5cc(C(F)(F)F)ccn45)ncn3)cc2)cn1 [A10, N-{[4-(1-methyl-1H-pyrazol-4-yl)phenyl]methyl}-6-[7-(trifluoromethyl)imidazo[1,2-a]pyridin-3-yl]pyrimidin-4-amine]
0.0068	0.064	–	CN1CCN(CCCOc2ccn3c(-c4cc(NCc5ccc(-c6cnn(C)c6)cc5)ncn4)cnc3c2)CC1 [A94, N-{[4-(1-methyl-1H-pyrazol-4-yl)phenyl]methyl}-6-{7-[3-(4-methylpiperazin-1-yl)propoxy]imidazo[1,2-a]pyridin-3-yl}pyrimidin-4-amine]
0.005	0.11	–	CN1CCN(CCOc2ccn3c(-c4cc(OCc5ccc(-c6cnn(C)c6)cc5)ncn4)cnc3c2)CC1 [A86, 7-[2-(4-methyl-piperazin-1-yl)-ethoxy]-3-{6-[4-(1-methyl-1H-pyrazol-4-yl)-benzyloxy]-pyrimidin-4-yl}-imidazo[1,2-a]pyridine]
0.033	1.5	–	c1ccn2c(-c3cc(NCc4ccc(-c5ncc[nH]5)cc4)ncn3)cnc2c1 [A157, (6-imidazo[1,2-a]pyridin-3-yl-pyrimidin-4-yl)-[4-(1H-imidazol-2-yl)-benzyl]-amine]
0.0037	0.049	–	CN1CCC(CCOc2ccn3c(-c4cc(NCc5ccc(-c6cnn(C)c6)cc5)ncn4)cnc3c2)C1 (stereo not shown) [A115, [4-(1-methyl-1H-pyrazol-4-yl)-benzyl]-(6-{7-[2-(1-methyl-pyrrolidin-3-yl)-ethoxy]-imidazo[1,2-a]pyridin-3-yl}-pyrimidin-4-yl)-amine]
0.0038	0.17	–	COCCN1CCC(COc2ccn3c(-c4cc(NCc5ccc(-c6cnn(C)c6)cc5)ncn4)cnc3c2)CC1 [A190]
0.0036	0.034	–	CN1CCO[C@@H](COc2ccn3c(-c4cc(NCc5ccc(-c6cnn(C)n6)cc5)ncn4)cnc3c2)C1 [A121, {6-[7-((R)-4-methyl-morpholin-2-ylmethoxy)-imidazo[1,2-a]pyridin-3-yl]-pyrimidin-4-yl}-[4-(2-methyl-2H-[1,2,3]triazol-4-yl)-benzyl]-amine]
0.0038	0.37	–	Fc1cc(N2CCCC2)ncc1CNc1cc(-c2cnc3ccccn23)ncn1 [A152, (4-fluoro-6-pyrrolidin-1-yl-pyridin-3-ylmethyl)-(6-imidazo[1,2-a]pyridin-3-yl-pyrimidin-4-yl)-amine]
0.0099	0.13	–	Cn1ncc(-c2ccc(CNc3cc(-c4cnc5cc(OCCN6CC7CC7C6)ccn45)ncn3)cc2)n1 (stereo not shown) [A128, (6-{7-[2-(3-aza-bicyclo[3.1.0]hex-3-yl)-ethoxy]-imidazo[1,2-a]pyridin-3-yl}-pyrimidin-4-yl)-[4-(2-methyl-2H-[1,2,3]triazol-4-yl)-benzyl]-amine]
0.041	0.25	–	Cn1cc(-c2ccc(CNc3cc(-c4cnc5cc(OCCCN6CCCC6=O)ccn45)ncn3)cc2)cn1 [A145, 1-[3-({3-[6-({[4-(1-methyl-1H-pyrazol-4-yl)phenyl]methyl}amino)pyrimidin-4-yl]imidazo[1,2-a]pyridin-7-yl}oxy)propyl]pyrrolidin-2-one]
0.0074	0.053	–	CN1CCOC[C@@H]1COc1ccn2c(-c3cc(NCc4ccc(-c5cnn(C)c5)cc4)ncn3)cnc2c1 [A124, N-{[4-(1-methyl-1H-pyrazol-4-yl)phenyl]methyl}-6-(7-{[(3R)-4-methylmorpholin-3-yl]methoxy}imidazo[1,2-a]pyridin-3-yl)pyrimidin-4-amine]
0.0057	0.063	–	c1cn(-c2ccc(CNc3cc(-c4cnc5cc(OCCN6CCOCC6)ccn45)ncn3)cc2)nn1 [A68, {6-[7-(2-morpholin-4-yl-ethoxy)-imidazo[1,2-a]pyridin-3-yl]-pyrimidin-4-yl}-(4-[1,2,3]triazol-1-yl-benzyl)-amine]
0.1	2.3	–	COc1ccn2c(-c3cc(NCc4ccc(C(=O)N(C)C)cc4)ncn3)cnc2c1 [A13, 4-{[(6-{7-methoxyimidazo[1,2-a]pyridin-3-yl}pyrimidin-4-yl)amino]methyl}-N,N-dimethylbenzamide]
0.0069	0.064	–	Cn1cc(-c2ccc(CNc3cc(-c4cnc5cc(OCCN6CCS(=O)(=O)CC6)ccn45)ncn3)cc2)cn1 [A138, 4-[2-({3-[6-({[4-(1-methyl-1H-pyrazol-4-yl)phenyl]methyl}amino)pyrimidin-4-yl]imidazo[1,2-a]pyridin-7-yl}oxy)ethyl]-1lambda6-thiomorpholine-1,1-dione]

SMILES	IC50 [1] [µM]	IC50 [2] [µM]	efflux ratio at 2 h, 1 μM [3]
Cn1cc(-c2ccc(CNc3cc(-c4cnc5cc(OCCCCN6CCC6)ccn45)ncn3)cc2)cn1 [A225, {6-[7-(4-azetidin-1-yl-butoxy)-imidazo[1,2-a]pyridin-3-yl]-pyrimidin-4-yl}-[4-(1-methyl-1H-pyrazol-4-yl)-benzyl]-am amine]	0.015	0.057	–
